This is an account of results in ChEMBL document CHEMBL3044837, “Synthesis and pharmacological investigation of novel 2-substituted-3-carboxamido-4H-pyrimidobenzothiazole derivatives as a new class of H1-antihistaminic agent” (Med Chem Res, 2013).

Molecules are shown by their SMILES.

The series concerns Mus musculus. The experiment in a line: Sedative activity in Mus musculus Swiss albino (mouse) at 10 mg/kg, ip after 1 hr relative to control. In kind it is organism-based. Set-up: dose 10 mg/kg, route intraperitoneal. To be noted: in vivo.
`NC(=O)c1c(N2CCN(CCO)CC2)nc2sc3cc(Cl)ccc3n2c1=O` displayed an Activity of 30.37%.
The same measure for `CN(C)CCNc1nc2sc3cc(Cl)ccc3n2c(=O)c1C(N)=O`: 25.97%; for `CCN1CCN(c2nc3sc4cc(Cl)ccc4n3c(=O)c2C(N)=O)CC1`: 22.66%; for `NC(=O)c1c(N2CCCC2)nc2sc3cc(Cl)ccc3n2c1=O`: 38.27%.
The same measure for `CN1CCN(c2nc3sc4cc(Cl)ccc4n3c(=O)c2C(N)=O)CC1`: 32.92%; for `NC(=O)c1c(N2CCCCC2)nc2sc3cc(Cl)ccc3n2c1=O`: 20.51%.
The value for `CN(C)CCNc1nc2sc3ccccc3n2c(=O)c1C(N)=O` was 36.25%; that for `NC(=O)c1c(N2CCOCC2)nc2sc3cc(Cl)ccc3n2c1=O` was 23.17%; that for `NC(=O)c1c(N2CCN(CCO)CC2)nc2sc3ccccc3n2c1=O` was 36.47%.
For the compound `CN1CCN(c2nc3sc4ccccc4n3c(=O)c2C(N)=O)CC1`, the Activity worked out at 35.21%.
The same measure for `CCN1CCN(c2nc3sc4ccccc4n3c(=O)c2C(N)=O)CC1`: 26.43%; for `NC(=O)c1c(N2CCCCC2)nc2sc3ccccc3n2c1=O`: 23.61%.
The value for `NC(=O)c1c(N2CCCC2)nc2sc3ccccc3n2c1=O` was 33.33%; that for `NC(=O)c1c(N2CCOCC2)nc2sc3ccccc3n2c1=O` was 24.32%.
The value for `CN(C)CCC(c1ccc(Cl)cc1)c1ccccn1.O=C(O)/C=C\C(=O)O` (stereo not given) [CHLORPHENIRAMINE MALEATE] was 69.01%.
